Activity calls are given as the source filed them. The calls are words filed in the database; no cut-off is given here.
Assays:
[1] = tested on: SOX2 promoter DNA; assay: Binding affinity to SOX2 promoter 5'-CTTTGTT-3' DNA in human SW620 cells assessed as downregulation beta-catenin mRNA expression incubated for 48 hrs by qRT-PCR analysis; format: cell-based; conditions: SW-620
[2] = tested on: SW-620; assay: Cell cycle arrest in human SW620 cells assessed as increase in accumulation at sub-G1/G1 phase at 2 uM to 5 uM after 48 hrs by propidium iodide staining based flow cytometry analysis; format: functional
[3] = tested on: SOX2 promoter DNA; assay: Binding affinity to SOX2 promoter 5'-CTTTGTT-3' DNA (unknown origin) transfected in human SW620 cells at 2 to 10 uM incubated for 24 hrs by 6xO/s-Luc reporter gene based Steady-Glo luciferase assay; format: cell-based; conditions: SW-620
[4] = tested on: SOX2 promoter DNA; assay: Binding affinity to SOX2 promoter 5'-CTTTGTT-3' DNA in human MKN45 cells assessed as reduction in SOX2 mRNA expression incubated for 48 hrs by qRT-PCR analysis; format: cell-based; conditions: MKN-45
[5] = tested on: SOX2 promoter DNA; assay: Binding affinity to SOX2 promoter 5'-CTTTGTT-3' DNA in human MCF7 cells assessed as reduction in SOX2 mRNA expression incubated for 48 hrs by qRT-PCR analysis; format: cell-based
[6] = tested on: SOX2 promoter DNA; assay: Binding affinity to SOX2 promoter 5'-CTTTGTT-3' DNA in human PC3 cells assessed as reduction in SOX2 mRNA expression incubated for 48 hrs by qRT-PCR analysis; format: cell-based; conditions: PC-3
[7] = tested on: SOX2 promoter DNA; assay: Binding affinity to SOX2 promoter 5'-CTTTGTT-3' DNA in human ES2 cells assessed as reduction in SOX2 mRNA expression incubated for 48 hrs by qRT-PCR analysis; format: cell-based
[8] = tested on: SOX2 promoter DNA; assay: Binding affinity to SOX2 promoter 5'-CTTTGTT-3' DNA in human U2OS cells assessed as reduction in SOX2 protein level incubated for 48 hrs by immunostaining based FACS analysis; format: cell-based
[9] = tested on: SW-620; assay: Antiinvasive activity in human SW620 cells assessed as reduction in cell invasion at 5 uM incubated for 72 hrs by crystal violet staining based assay relative to untreated control; format: functional
[10] = tested on: SOX2 promoter DNA; assay: Binding affinity to SOX2 promoter 5'-CTTTGTT-3' DNA in human SW620 cells assessed as down regulation of Cyclin D1 gene expression at 2 uM incubated for 48 hrs by Cy3-labelled cRNA-based microarray analysis; format: cell-based; conditions: SW-620
[11] = tested on: SOX2 promoter DNA; assay: Binding affinity to SOX2 promoter 5'-CTTTGTT-3' DNA in human SW620 cells assessed as down regulation of ALDH1A1 gene expression at 2 uM incubated for 48 hrs by Cy3-labelled cRNA-based microarray analysis; format: cell-based; conditions: SW-620
[12] = tested on: SOX2 promoter DNA; assay: Binding affinity to SOX2 promoter 5'-CTTTGTT-3' DNA in human SW620 cells assessed as down regulation of JAG1 gene expression at 2 uM incubated for 48 hrs by Cy3-labelled cRNA-based microarray analysis; format: cell-based; conditions: SW-620
[13] = tested on: SOX2 promoter DNA; assay: Binding affinity to SOX2 promoter 5'-CTTTGTT-3' DNA in human SW620 cells assessed as down regulation of GLI3 gene expression at 2 uM incubated for 48 hrs by Cy3-labelled cRNA-based microarray analysis; format: cell-based; conditions: SW-620
[14] = tested on: SOX2 promoter DNA; assay: Binding affinity to SOX2 promoter 5'-CTTTGTT-3' DNA in human SW620 cells assessed as down regulation of […] mRNA expression at 2 uM incubated for 48 hrs by qRT-PCR analysis; format: cell-based; conditions: SW-620
[15] = tested on: SOX2 promoter DNA; assay: Binding affinity to SOX2 promoter 5'-CTTTGTT-3' DNA in human SW620 cells assessed as down regulation of NFKB1 mRNA expression at 2 uM incubated for 48 hrs by qRT-PCR analysis; format: cell-based; conditions: SW-620
[16] = tested on: SOX2 promoter DNA; assay: Binding affinity to SOX2 promoter 5'-CTTTGTT-3' DNA in human SW620 cells assessed as up regulation of CDH1 mRNA expression at 2 uM incubated for 48 hrs by qRT-PCR analysis; format: cell-based; conditions: SW-620
[17] = tested on: B16-F10; assay: Anti-metastasis activity in mouse B16/F10 cells implanted in C57BL/6N mouse assessed as reduction in lung metastatic nodules at 1 mg/kg ip dosed every third day and measured on day 21 relative to untreated control; format: functional
[18] = tested on: SOX2 promoter DNA; assay: Binding affinity to SOX2 promoter 5'-CTTTGTT-3' DNA in human SW620 cells assessed as downregulation WNT2B mRNA expression incubated for 48 hrs by qRT-PCR analysis; format: cell-based; conditions: SW-620
[19] = tested on: SOX2 promoter DNA; assay: Binding affinity to SOX2 promoter 5'-CTTTGTT-3' DNA in human SW620 cells assessed as downregulation DVL2 mRNA expression incubated for 48 hrs by qRT-PCR analysis; format: cell-based; conditions: SW-620
[20] = tested on: SOX2 promoter DNA; assay: Binding affinity to SOX2 promoter 5'-CTTTGTT-3' DNA in human SW620 cells assessed as downregulation S100A4 mRNA expression incubated for 48 hrs by qRT-PCR analysis; format: cell-based; conditions: SW-620
[21] = tested on: SW-620; assay: Antiproliferative activity against human SW620 cells assessed as inhibition of cell proliferation incubated for 48 hrs by [3H]thymidine incorporation based scintillation counting method; format: functional
[22] = tested on: U2OS; assay: Antiproliferative activity against human U2OS cells assessed as inhibition of cell proliferation incubated for 48 hrs by [3H]thymidine incorporation based scintillation counting method; format: functional
[23] = tested on: MKN-45; assay: Cell cycle arrest in human MKN45 cells assessed as increase in accumulation at sub-G1/G1 phase at 2 uM to 5 uM after 48 hrs by propidium iodide staining based flow cytometry analysis; format: functional
[24] = tested on: MCF7; assay: Cell cycle arrest in human MCF7 cells assessed as increase in accumulation at sub-G1/G1 phase at 2 uM to 5 uM after 48 hrs by propidium iodide staining based flow cytometry analysis; format: functional
[25] = tested on: U2OS; assay: Cell cycle arrest in human U2OS cells assessed as increase in accumulation at sub-G1/G1 phase at 2 uM to 5 uM after 48 hrs by propidium iodide staining based flow cytometry analysis; format: functional
[26] = tested on: MKN-45; assay: Cell cycle arrest in human MKN45 cells assessed as reduction in accumulation at S phase at 2 uM to 5 uM after 48 hrs by propidium iodide staining based flow cytometry analysis; format: functional
[27] = tested on: U2OS; assay: Cell cycle arrest in human U2OS cells assessed as reduction in accumulation at S phase at 2 uM to 5 uM after 48 hrs by propidium iodide staining based flow cytometry analysis; format: functional
[28] = tested on: MKN-45; assay: Cell cycle arrest in human MKN45 cells assessed as reduction in accumulation at G2/M phase at 2 uM to 5 uM after 48 hrs by propidium iodide staining based flow cytometry analysis; format: functional
[29] = tested on: SW-620; assay: Up regulation of p27kip1 mRNA expression in human SW620 cells incubated for 48 hrs by qRT-PCR analysis; format: functional, cell-based
[30] = tested on: SW-620; assay: Up regulation of PUMA mRNA expression in human SW620 cells incubated for 48 hrs by qRT-PCR analysis; format: functional, cell-based
[31] = tested on: SW-620; assay: Up regulation of GADD45A mRNA expression in human SW620 cells incubated for 48 hrs by qRT-PCR analysis; format: functional, cell-based
[32] = tested on: SW-620; assay: Up regulation of caspase-3 mRNA expression in human SW620 cells incubated for 48 hrs by qRT-PCR analysis; format: functional, cell-based
[33] = tested on: SOX2 promoter DNA; assay: Binding affinity to SOX2 promoter 5'-CTTTGTT-3' DNA in human SW620 cells assessed as reduction in SOX2 protein level by measuring SOX2 level at 2 uM incubated for 48 hrs by immunostaining based FACS analysis (reference value: 55.9%); format: cell-based; parameters: scale not given: the % may be the effect or the level left; conditions: SW-620

## CC(=O)Nc1cc(C(=O)Nc2cc(C(=O)Nc3cc(C(=O)NCCC(=O)Nc4cn(C)c(C(=O)Nc5cc(C(=O)NCCCC(=O)Nc6cc(C(=O)Nc7cc(C(=O)NCCC(=O)Nc8cc(C(=O)Nc9cc(C(=O)Nc%10cn(C)c(C(=O)NCCCN(C)C)n%10)n(C)c9)n(C)c8)n(C)c7)n(C)c6)n(C)c5)n4)n(C)c3)n(C)c2)n(C)c1
[1]
  Activity: Active
[2]
  Activity: Active
[3]
  Activity: Active
[4]
  Activity: Active
[5]
  Activity: Active
[6]
  Activity: Active
[7]
  Activity: Active
[8]
  Activity: Dose-dependent effect
[9]
  fold change (FC): 4
[10]
  Activity: Active
[11]
  Activity: Active
[12]
  Activity: Active
[13]
  Activity: Active
[14]
  Activity: Active
[15]
  Activity: Active
[16]
  Activity: Active
[17]
  fold change (FC): 4
[18]
  Activity: Active
[19]
  Activity: Active
[20]
  Activity: Active
[21]
  inhibition: Dose-dependent effect
[22]
  inhibition: Dose-dependent effect
[23]
  Activity: Active
[24]
  Activity: Active
[25]
  Activity: Active
[26]
  Activity: Active
[27]
  Activity: Active
[28]
  Activity: Active
[29]
  Activity: Active
[30]
  Activity: Active
[31]
  Activity: Active
[32]
  Activity: Active
[33]
  Activity: 37.4%

From ChEMBL document CHEMBL4616595, “Targeted suppression of metastasis regulatory transcription factor SOX2 in various cancer cell lines using a sequence-specific designer pyrrole-imidazole polyamide” (Bioorg Med Chem, 2020)
